The values that follow come from patent publication US8293513B2, “Histone deacetylase inhibitors” (Georgetown University, priority 2007, dated 2012).

The test system of data set [1] is PC-3 cells. Put plainly: Fluorescence imaging of compound localization in cells. The class given is cell-based, human. As to conditions: 20 μM. As for the experimental part: (§1) Human prostate cancer cell lines PC-3 and DU145 cells were plated down onto glass slides at a density of 500,000 per slide and incubated overnight. […] The slides were then washed three times with phosphate-buffered saline. The cells were then fixed with a 4% solution of formaldehyde for ten minutes, washed four times with phosphate-buffered saline and mounted. For slides with nuclear staining, cells were treated with propidium iodide (1:1000) for 4 minutes after fixation, washed four times with PBS and mounted.
(§2) Propidium Iodide was imaged with an excitation wavelength of 535 and an emission wavelength of 617. Images were taken at 63×.

The subject of a further data set is DU145 cells. The data set is described as above. As to conditions: DU-145 cells, for 60 minutes (FIG. 2). The class given is cell-based, human. The protocol:
as §1, §2

The next data set relates to A549 cells. Put plainly: Imaging of histone acetylation. The class given is cell-based. As to conditions: 20 μM, 60 minutes (FIG. 5), versus untreated control. The protocol:
Images A, B, C and D show the cells after treatment with the histone deacetylase inhibitor (20 μM) for 60 minutes. […] Image C is the DIC image.

For data set [2], the target named is HeLa nuclear extracts (histone deacetylase). The class given is biochemical. As to conditions: pan-HDAC inhibition assay. The protocol: Reactions were stopped after 15 min with Fluor de Lys Developer. […] The reaction was performed in triplicate for each sample. Each point represents the mean±SD of replicates.
Another data set has as its target HDAC3 (Homo sapiens, UniProt O15379). Put plainly: HDAC isoform inhibition assay (Fluor de Lys, purified protein). The class given is biochemical.
For another data set, the target named is HDAC1 (Homo sapiens, UniProt Q13547). The data set is described as above. The class given is biochemical.
In a further data set the target is T1, HDAC6 (Homo sapiens, UniProt Q9UBN7).
T1 sequence (Q9UBN7 1-1215): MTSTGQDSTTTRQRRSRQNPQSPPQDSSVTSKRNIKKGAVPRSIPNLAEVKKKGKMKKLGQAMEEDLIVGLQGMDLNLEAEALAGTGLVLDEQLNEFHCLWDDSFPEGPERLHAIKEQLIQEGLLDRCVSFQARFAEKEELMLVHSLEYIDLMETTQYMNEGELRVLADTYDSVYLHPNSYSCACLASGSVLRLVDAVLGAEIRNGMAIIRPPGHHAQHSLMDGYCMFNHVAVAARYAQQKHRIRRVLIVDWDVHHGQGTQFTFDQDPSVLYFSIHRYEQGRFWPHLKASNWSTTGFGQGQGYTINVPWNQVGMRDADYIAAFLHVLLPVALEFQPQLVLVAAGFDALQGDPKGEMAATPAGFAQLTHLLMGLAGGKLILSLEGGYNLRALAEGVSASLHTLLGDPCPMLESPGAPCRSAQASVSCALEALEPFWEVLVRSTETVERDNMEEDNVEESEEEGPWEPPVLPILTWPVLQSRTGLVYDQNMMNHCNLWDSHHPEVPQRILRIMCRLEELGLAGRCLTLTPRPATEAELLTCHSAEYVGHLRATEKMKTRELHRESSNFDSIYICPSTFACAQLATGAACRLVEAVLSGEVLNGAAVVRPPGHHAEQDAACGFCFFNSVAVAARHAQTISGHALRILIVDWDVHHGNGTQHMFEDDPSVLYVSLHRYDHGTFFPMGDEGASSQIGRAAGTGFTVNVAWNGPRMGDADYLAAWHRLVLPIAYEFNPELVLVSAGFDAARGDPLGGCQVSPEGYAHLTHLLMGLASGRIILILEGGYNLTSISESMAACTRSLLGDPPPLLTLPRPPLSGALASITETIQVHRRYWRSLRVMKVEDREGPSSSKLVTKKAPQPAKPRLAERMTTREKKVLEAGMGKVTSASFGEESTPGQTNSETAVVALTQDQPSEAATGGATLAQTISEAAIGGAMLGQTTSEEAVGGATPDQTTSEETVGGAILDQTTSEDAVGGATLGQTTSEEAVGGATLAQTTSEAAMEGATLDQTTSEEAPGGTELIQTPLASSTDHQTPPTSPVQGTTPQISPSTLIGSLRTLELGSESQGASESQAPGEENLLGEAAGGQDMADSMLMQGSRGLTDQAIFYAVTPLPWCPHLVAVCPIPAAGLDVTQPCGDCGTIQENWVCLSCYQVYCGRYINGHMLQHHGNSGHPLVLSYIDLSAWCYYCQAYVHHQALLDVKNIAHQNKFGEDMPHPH
The data set is described as above. The class given is biochemical.

Data set [3] in a line: Emission and excitation spectra. The class given is physicochemical. The protocol:
Measurement of the emission and excitation spectra for the compound of Example 1 was performed to confirm the corresponding range for fluorescent visualization in cancer cells and to confirm the fluorescent property of the compound.

For the next data set, the target named is HDAC2 (Homo sapiens, UniProt Q92769). Put plainly: HDAC isoform inhibition assay (Fluor de Lys, purified protein). The class given is biochemical.
Data set [4] relates to PC-3 cells. Put plainly: Cell cycle distribution (propidium iodide, FACS). The class given is cell-based. As to conditions: PC-3, 24 hours after adding the compound. As for the experimental part:
(§3) LNCap and PC-3 cells were incubated in the presence or absence of compound. The cells were harvested at the indicated time points after addition of compound then washed twice with cold phosphate-buffered saline. Cells (1-2×10^6) were resuspended in 0.5 ml of ice-cold phosphate-buffered saline, and single cell suspension was verified microscopically. The cell suspension was gradually mixed with ice-cold absolute ethanol to the final volume of 2.0 ml, and cooled on ice at least for 20 min before staining with propidium iodide. The cell cycle distributions were measured in a fluorescence-activated cell sorter from Becton Dickinson. DNA content was quantified using ModFit LT 3.0 software (Verity Software House, Inc.).

A further data set has as its system LNCap cells. The experiment in a line: Cell cycle distribution (propidium iodide, FACS). The class given is cell-based. As to conditions: 24 hours after adding the compound. The protocol: as §3
The subject of another data set is PC-3 (prostate cancer). Put plainly: Cell growth inhibition (CellTiter 96 AQueous One, MTS). The class given is cell-based. As to conditions: Homo sapiens, PC3 cells, 48 hours, read-out: Proliferation IG50 PC3. As for the experimental part: (§4) The cell lines used were PC-3 (prostate cancer), C42 (androgen-independent prostate cancer), LNCap (androgen-dependent prostate cancer), SQ20B (squamous cell carcinoma), MCF7 (breast cancer) and MDA-231 (breast cancer).
(§5) Cells were seeded at 5,000 per well in […] of growing medium in 96-well tissue culture plates. At 24 hours after seeding, a solution of the compound or DMSO vehicle control were added to each well to a total volume of […] (three replicates per concentration), and incubated for 48 hours at 37° C. Growth inhibition was determined using CellTiter 96® AQueous One Solution Cell Proliferation according to manufacturer's instructions (Technical Bulletin: CellTiter 96® AQueous One Solution Cell Proliferation Assay. Instructions for Use of Products G3580, G3581 and G3582; Promega, Inc. Madison, Wis., Revised 4/2005), and the absorbance measured at 490 nm on a microplate reader. The CellTiter 96® AQueous One Solution Cell Proliferation Assay is a colorimetric method for determining the number of viable cells in proliferation, cytotoxicity or chemosensitivity assays and contains a tetrazolium compound [3-(4,5-dimethylthiazol-2-yl)-5-(3-carboxymethoxyphenyl)-2-(4-sulfophenyl)-2H-tetrazolium, inner salt; “MTS”] and an electron coupling reagent (phenazine ethosulfate; PES). The MTS tetrazolium compound (Owen's reagent) is bioreduced by cells into a colored formazan product that is soluble in tissue culture medium. Assays are performed by adding a small amount of the CellTiter 96® AQueous One Solution Reagent directly to culture wells, incubating for 1-4 hours and then recording the absorbance at 490 nm with a 96-well plate reader. The quantity of formazan product as measured by the absorbance at 490 nm is directly proportional to the number of living cells in culture.
(§6) The 50% growth inhibition (IG50) was calculated as the compound concentration required to reduce cell number by 50% compared with control.

The subject of the next data set is MDA-231 (breast cancer). Described as above. The class given is cell-based. As to conditions: Homo sapiens, MDA-MB-231; MDA-231 cells, 48 hours; read-out: Proliferation IG50 MDA-231. The protocol:
as §4, §5, §6

Data set [5] relates to SQ20B (squamous cell carcinoma). The description is as above. The class given is cell-based. As to conditions: Homo sapiens; SQ20B cells, 48 hours; read-out: Proliferation IG50 SQ20B. The protocol: as §4, §5, §6
A further data set relates to MCF7 (breast cancer). The description is as above. The class given is cell-based. As to conditions: Homo sapiens; MCF7 cells, 48 hours; read-out: Proliferation IG50 MCF7. As for the experimental part: as §4, §5, §6
For data set [6], the system named is LNCap (androgen-dependent prostate cancer). The data set is described as above. The class given is cell-based. As to conditions: Homo sapiens; LNCap cells, 48 hours; read-out: Proliferation IG50 LNCap. The protocol: as §4, §5, §6
Data set [7] has as its system C42 (androgen-independent prostate cancer). The data set is described as above. The class given is cell-based. As to conditions: C4-2; C42 cells, 48 hours; read-out: Proliferation IG50 C42. The protocol: as §4, §5, §6
In another data set the target is T2, HDAC8 (Homo sapiens, UniProt Q9BY41).
T2 sequence (Q9BY41 1-377): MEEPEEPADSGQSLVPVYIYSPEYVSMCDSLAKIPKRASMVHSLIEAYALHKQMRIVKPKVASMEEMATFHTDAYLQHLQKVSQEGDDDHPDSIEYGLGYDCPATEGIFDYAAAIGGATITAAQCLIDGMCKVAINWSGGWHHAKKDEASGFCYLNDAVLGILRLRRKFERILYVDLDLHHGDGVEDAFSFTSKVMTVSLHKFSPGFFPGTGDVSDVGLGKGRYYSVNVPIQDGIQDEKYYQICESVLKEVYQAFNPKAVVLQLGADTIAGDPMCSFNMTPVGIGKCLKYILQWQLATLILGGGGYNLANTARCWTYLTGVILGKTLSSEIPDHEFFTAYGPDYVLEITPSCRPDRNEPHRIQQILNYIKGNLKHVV
The experiment in a line: biochemical.

The subject of the next data set is A549 (lung cancer) cells. The experiment in a line: Imaging of tubulin acetylation. As to conditions: 20 μM, 60 minutes (FIG. 4), versus untreated control. The class given is cell-based. The protocol:
Images A, B, and C show the cells after treatment with the histone deacetylase inhibitor (20 μM) for 60 minutes. […] Image C is the DIC image, while image D is a merger of images A, B, and C.

The target in another data set is HDAC4 (Homo sapiens, UniProt P56524). As to conditions: PC3 cells, 1 μM, 24 hours (FIG. 6).
Where [8] appears, read: HeLa nuclear extracts (Table 2), read-out: HDAC IC50.
Where [9] appears, read: HeLa nuclear extracts (Table 3), read-out: pan-HDAC IC50.

Where two headings read alike, the source gives them in different places.

Chain of HDAC2 (Q92769 whole entry, species assumed, canonical isoform): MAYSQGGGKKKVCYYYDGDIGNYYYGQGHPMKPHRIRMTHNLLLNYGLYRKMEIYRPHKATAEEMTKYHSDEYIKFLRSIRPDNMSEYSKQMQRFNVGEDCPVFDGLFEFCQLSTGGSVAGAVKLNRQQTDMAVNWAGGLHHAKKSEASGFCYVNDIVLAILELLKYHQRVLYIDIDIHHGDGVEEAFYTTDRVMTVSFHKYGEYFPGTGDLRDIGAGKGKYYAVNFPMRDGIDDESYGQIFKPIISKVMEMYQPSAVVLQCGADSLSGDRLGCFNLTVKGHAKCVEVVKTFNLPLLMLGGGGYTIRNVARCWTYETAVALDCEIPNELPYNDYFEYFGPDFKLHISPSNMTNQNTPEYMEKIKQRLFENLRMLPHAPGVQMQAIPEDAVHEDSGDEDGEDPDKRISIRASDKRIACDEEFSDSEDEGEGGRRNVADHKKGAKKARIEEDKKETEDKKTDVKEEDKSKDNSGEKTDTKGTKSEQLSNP
Chain of HDAC1 (Q13547 whole entry, species assumed): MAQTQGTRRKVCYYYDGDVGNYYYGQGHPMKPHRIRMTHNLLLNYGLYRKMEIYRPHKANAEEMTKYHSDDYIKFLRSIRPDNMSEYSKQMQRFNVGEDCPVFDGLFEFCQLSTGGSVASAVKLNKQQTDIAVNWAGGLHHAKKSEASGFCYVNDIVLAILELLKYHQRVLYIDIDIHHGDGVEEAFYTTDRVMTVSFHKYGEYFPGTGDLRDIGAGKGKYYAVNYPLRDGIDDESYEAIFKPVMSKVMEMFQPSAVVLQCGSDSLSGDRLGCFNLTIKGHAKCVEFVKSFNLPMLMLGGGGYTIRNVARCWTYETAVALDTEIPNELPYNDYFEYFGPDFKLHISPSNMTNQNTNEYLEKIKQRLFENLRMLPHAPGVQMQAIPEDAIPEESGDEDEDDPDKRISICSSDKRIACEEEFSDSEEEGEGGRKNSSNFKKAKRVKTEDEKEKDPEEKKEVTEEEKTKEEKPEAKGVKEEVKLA
Chain of HDAC3 (O15379 whole entry, species assumed, canonical isoform): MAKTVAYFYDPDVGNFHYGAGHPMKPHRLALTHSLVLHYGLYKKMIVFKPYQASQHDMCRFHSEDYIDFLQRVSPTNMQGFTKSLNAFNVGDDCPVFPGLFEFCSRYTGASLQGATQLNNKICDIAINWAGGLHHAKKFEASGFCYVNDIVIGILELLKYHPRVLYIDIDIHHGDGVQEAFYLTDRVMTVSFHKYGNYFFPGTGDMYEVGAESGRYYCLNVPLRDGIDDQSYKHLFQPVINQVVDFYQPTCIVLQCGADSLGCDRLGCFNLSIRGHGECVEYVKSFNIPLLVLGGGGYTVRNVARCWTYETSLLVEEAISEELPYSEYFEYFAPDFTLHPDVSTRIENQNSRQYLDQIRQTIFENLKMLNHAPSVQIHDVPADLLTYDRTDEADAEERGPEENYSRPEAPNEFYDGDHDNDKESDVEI
Chain of HDAC3 (O75376 395-489 partner limits assumed, species assumed): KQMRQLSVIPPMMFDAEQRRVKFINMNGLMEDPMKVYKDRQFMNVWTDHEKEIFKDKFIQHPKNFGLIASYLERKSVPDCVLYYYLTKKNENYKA
Chain of HDAC4 (P56524 whole entry): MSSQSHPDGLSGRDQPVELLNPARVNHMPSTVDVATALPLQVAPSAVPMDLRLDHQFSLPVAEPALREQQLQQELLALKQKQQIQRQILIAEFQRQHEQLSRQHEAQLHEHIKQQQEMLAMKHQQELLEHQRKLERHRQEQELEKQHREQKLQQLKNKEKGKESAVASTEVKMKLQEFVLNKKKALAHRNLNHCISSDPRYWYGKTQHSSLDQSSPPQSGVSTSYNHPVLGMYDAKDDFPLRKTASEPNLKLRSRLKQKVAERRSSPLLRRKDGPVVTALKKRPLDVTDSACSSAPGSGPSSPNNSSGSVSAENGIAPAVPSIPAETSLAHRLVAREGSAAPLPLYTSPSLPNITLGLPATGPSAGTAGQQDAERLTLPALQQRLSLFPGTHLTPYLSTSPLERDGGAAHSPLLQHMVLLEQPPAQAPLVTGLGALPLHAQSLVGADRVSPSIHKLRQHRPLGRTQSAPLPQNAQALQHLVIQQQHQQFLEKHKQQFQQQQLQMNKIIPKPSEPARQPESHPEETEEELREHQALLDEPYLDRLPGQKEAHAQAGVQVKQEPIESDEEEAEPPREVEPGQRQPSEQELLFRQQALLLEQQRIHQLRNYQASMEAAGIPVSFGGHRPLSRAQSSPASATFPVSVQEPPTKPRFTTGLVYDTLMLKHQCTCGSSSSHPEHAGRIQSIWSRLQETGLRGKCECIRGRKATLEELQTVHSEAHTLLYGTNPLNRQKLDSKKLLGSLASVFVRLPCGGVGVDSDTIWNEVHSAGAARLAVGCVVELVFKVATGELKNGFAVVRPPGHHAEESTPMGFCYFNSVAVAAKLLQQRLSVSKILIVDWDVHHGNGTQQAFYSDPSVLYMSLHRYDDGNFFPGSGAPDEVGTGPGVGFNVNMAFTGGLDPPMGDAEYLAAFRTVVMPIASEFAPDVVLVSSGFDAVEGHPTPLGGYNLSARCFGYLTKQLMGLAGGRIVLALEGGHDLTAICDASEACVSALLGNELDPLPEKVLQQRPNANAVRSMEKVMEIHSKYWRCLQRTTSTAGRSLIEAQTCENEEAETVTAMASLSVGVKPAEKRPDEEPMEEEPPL
Procedure for HDAC4: Human prostate cancer PC3 cells were cultured in Dulbecco's Modified Eagle's Medium (DMEM) with 5% serum at 37° C. over night. […] Control cells were incubated in the absence of test compound.
After 24 hours, the cells were washed with phosphate-buffered saline (1×) one time, and fixed with 4% percent of paraformaldehyde for 15 min. Non specific binding was blocked with 10% normal goat serum in phosphate-buffered saline containing 0.2% tween-20 (sigma aldrich P7949) for 1 hour. Cells were treated with mouse monoclonal anti-HDAC4 antibody (Sigma Aldrich H0163) 1:200 dilution in 5% goat serum in PBS for 1 hour at room temperature. The cells were washed three times with phosphate buffered saline (1×). […] The cells were washed with phosphate-buffered saline (1×) three times. Vecta shield mounting medium for florescence with DIPA (Vector laboratory H-1200) were loaded on the cells and covered with cover glass. The cells were then treated with HDAC4 antibody to visualize HDAC4 and with 4′,6-diamidino-2-phenylindole (DAPI) to visualize the nuclei.
Fluorescence microscopy was used to observe the immunohistostaining results.

For the compound `CN(C)c1cccc2c(S(=O)(=O)NCCCCCC(=O)NO)cccc12` [Example 1, 6-(5-(Dimethylamino)naphthalene-1-sulfonamido)-N-hydroxyhexanamide], the “Co-localization with nuclei stained with propidium iodide” value in the data set with PC-3 cells [1] (PC3 cells, 60 min (FIG. 3)) is listed as “does not localize to nuclei”. For the same compound, the “Localization of compound fluorescence in cells” value with PC-3 cells [1] (PC-3 cells, 60 minutes (FIG. 2)) was “present in the cytoplasm but not the nucleus of cells”; in the data set on DU145 cells it was “seen fluorescing (green fluorescence) in the cytoplasm”. Besides, the “Histone acetylation in the nucleus” value in the data set with A549 cells was “increased nuclear histone acetylation”. In addition, the IC50 was 0.125 µM in data set [2] (setting [8]); 0.125 µM in data set [2] (setting [9]); 1.12 µM against HDAC3; 0.956 µM on HDAC1; 0.129 µM against HDAC6; 1.38 µM against HDAC2. Further, the IC50 in the data set on PC-3 (prostate cancer) came to 0.00154 µM; in the data set on MDA-231 (breast cancer), 0.0122 µM; in data set [5] it was 0.00643 µM; in the data set with MCF7 (breast cancer) it was 0.0092 µM; in data set [6], 0.00122 µM; in data set [7], 0.00191 µM. For the same compound, the IC50 against HDAC8 came to 2.9 µM. Further, in data set [3], the “Emiss (emission wavelength)” value is 500 nm. The “Exc (excitation wavelength)” value in [3] is 320 nm. Also, the “Cell cycle distribution G1” value was 64.35% in the data set on PC-3 cells [4] and 85.23% in the data set on LNCap cells. In addition, the entries for the “Cell cycle distribution G2” value with PC-3 cells [4] and with LNCap cells were 15.74% and 5.59%, respectively. For the same compound, the “Cell cycle distribution S” value with PC-3 cells [4] turned out to be 19.91%; in the data set on LNCap cells, 9.18%. The “Tubulin acetylation in the cytoplasm” value in the data set with A549 (lung cancer) cells is given as “increased tubulin acetylation”.
Take `CN(C)c1cccc2c(S(=O)(=O)NCCCCC(=O)NO)cccc12` [Example 2]: the IC50 in [2] (setting [8]) amounted to 0.287 µM.
On to `CN(C)c1cccc2c(S(=O)(=O)NCCCCCCC(=O)NO)cccc12` [Example 3], for which the IC50 in [2] (setting [8]) worked out at 0.116 µM; in data set [2] (setting [9]), 0.116 µM; at HDAC3 it was 4.89 µM; against HDAC1 it was 1.29 µM; on HDAC6, 0.0762 µM; on HDAC2, 7.4 µM.
`CN(C)c1cccc2c(S(=O)(=O)NCCCCCCCC(=O)NO)cccc12` [Example 4]: the IC50 in data set [2] (setting [8]) came to 0.208 µM.
Take `O=C(CCCCCCC(=O)Nc1ccccc1)NO` [SAHA, suberoylanilide hydroxamic acid, reference compound]: the “HDAC4 distribution between cytoplasm and nuclei” value at HDAC4 is listed as “traps HDAC4 in the cytoplasm of the cells”. Besides, in the data set on PC-3 cells [4], the “Cell cycle distribution G1” value amounted to 72.28%, the “Cell cycle distribution G2” value turned out to be 13.39% and the “Cell cycle distribution S” value came out at 14.33%.
